The values below come from patent US20180099931A1 (AbbVie S.à.r.l., priority 2016, published 2018).

The target in the test is T1, F508delCFTR (Homo sapiens, UniProt P13569, DEL508-508).
T1 construct: expressed in transfected cells; host or cells: CFBE41o- human lung-derived epithelial cells (CFBE4lo-F508delCFTR-HRP), doxycycline-inducible
The test can be described thus: Cell Surface Expression-Horse Radish Peroxidase (CSE-HRP) Assay.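 As to Maximum % activity (with co-corrector): co-corrector and positive control are both the same reference corrector at 2 µM.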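 As to Maximum % activity (without co-corrector): percent of the 2 µM on-plate positive control corrector response above DMSO.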 Conditions: for Emax / Maximum % activity (with co-corrector): maximum at any tested concentration, normalized to on-plate positive control; for Emax: read-out: Maximum % activity (without co-corrector); for Maximum % activity (with co-corrector): with co-corrector (2 μM). Type of test: cell-based.

[1] abbreviates: test compound without co-corrector.
Setting [2] is: test compound without co-corrector, read-out: EC50 (without co-corrector).
[3] abbreviates: with co-corrector (2 μM of 3-[(2R,4R)-4-({[1-(2,2-difluoro-1,3-benzodioxol-5-yl)cyclopropyl]carbonyl}amino)-7-methoxy-3,4-dihydro-2H-chromen-2-yl]benzoic acid), read-out: EC50 (with co-corrector).

Like-named read-outs stand apart in the source and are kept apart here.

T1 sequence (P13569 with tags, fused parts or gaps DEL508-508): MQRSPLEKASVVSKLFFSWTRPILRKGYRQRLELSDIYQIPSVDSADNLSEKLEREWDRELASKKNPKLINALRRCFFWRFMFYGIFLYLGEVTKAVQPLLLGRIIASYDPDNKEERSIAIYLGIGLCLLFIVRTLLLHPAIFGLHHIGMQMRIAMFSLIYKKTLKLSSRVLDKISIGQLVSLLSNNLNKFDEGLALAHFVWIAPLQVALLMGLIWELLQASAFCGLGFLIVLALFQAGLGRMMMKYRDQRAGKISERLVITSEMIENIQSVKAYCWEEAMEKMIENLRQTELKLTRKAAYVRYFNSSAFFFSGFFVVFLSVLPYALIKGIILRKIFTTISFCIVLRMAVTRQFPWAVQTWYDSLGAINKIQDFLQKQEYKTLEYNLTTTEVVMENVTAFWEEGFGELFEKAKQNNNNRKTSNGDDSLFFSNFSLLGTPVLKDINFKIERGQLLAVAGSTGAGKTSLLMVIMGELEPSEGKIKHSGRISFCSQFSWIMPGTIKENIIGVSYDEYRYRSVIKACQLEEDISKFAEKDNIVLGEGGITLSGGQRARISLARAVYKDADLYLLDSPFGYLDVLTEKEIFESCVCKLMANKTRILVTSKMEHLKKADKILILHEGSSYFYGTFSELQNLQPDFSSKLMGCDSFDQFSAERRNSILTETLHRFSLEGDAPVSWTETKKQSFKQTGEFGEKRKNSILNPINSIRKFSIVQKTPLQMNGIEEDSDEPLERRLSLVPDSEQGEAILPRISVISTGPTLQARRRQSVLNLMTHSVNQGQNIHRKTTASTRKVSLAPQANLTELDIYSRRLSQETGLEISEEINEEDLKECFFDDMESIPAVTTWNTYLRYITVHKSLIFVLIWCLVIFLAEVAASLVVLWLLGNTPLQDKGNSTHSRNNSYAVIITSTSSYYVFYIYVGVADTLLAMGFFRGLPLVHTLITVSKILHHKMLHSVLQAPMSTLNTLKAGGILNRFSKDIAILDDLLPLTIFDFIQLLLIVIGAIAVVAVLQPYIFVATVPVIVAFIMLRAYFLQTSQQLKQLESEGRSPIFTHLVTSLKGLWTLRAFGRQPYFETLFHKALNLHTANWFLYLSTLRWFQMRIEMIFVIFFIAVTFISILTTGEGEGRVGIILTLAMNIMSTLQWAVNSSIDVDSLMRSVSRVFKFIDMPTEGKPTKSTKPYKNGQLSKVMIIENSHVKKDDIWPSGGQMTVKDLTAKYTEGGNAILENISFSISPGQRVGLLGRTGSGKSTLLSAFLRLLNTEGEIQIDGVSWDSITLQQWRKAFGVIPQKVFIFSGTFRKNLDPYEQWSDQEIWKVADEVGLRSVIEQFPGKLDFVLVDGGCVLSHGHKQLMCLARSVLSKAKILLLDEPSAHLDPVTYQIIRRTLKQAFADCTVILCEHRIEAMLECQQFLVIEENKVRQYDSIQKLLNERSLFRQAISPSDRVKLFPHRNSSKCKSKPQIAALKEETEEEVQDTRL

Broadly, the EC50 is the midpoint of the concentration-response curve. Regarding `COc1cc(C(F)(F)F)ccc1CN[C@@H]1[C@@H](C(C)(C)C)[C@H](C(=O)O)N(C(=O)OC2CCC2)[C@@H]1c1ccccc1` (racemic) [III-114], the “Maximum % activity (with co-corrector)” value is on record as “+++ (≥350)”. Also, the Emax under setting [1] was in the range of 100 to 200%. Also, under setting [2], the EC50 was 1000 to 10000 nM. Further, under setting [3], the EC50 lay in the range of 1000 to 10000 nM.

As to `COc1ncc(C(F)(F)F)cc1CN[C@@H]1[C@@H](C(C)(C)OC)[C@H](C(=O)O)N(C(=O)C2CCCCC2)[C@@H]1c1ccccc1` (racemic) [III-116], the “Maximum % activity (with co-corrector)” value is “+++ (≥350)”. The Emax under setting [1] lay within 100 to 200%. Moreover, the EC50 under setting [2] lay within 1000 to 10000 nM. Further, the EC50 under setting [3] was under 1000 nM.

On to `COc1cc(Cl)ccc1CN[C@H]1[C@H](C(C)(C)C)[C@@H](C(=O)O)N(C(=O)C2CCCCC2)[C@H]1c1ncccc1OC` (racemic) [III-143], for which the “Maximum % activity (with co-corrector)” value was “+ (<150)”. Moreover, the Emax under setting [1] is under 100%. Besides, the EC50 under setting [2] was over 10000 nM. Moreover, under setting [3], the EC50 is over 10000 nM.

In the case of `COc1cc(C(F)(F)F)ccc1CN[C@H]1[C@H](C(C)(C)C)[C@@H](C(=O)O)N(C(=O)C(C)c2ccccc2)[C@H]1c1ccccc1` (relative stereo) [Example 11, (2S,3S,4S,5S)-3-tert-butyl-4-({[2-methoxy-4-(trifluoromethyl)phenyl]methyl}amino)-5-phenyl-1-[(2R*)-2-phenylpropanoyl]pyrrolidine-2-carboxylic acid], the “Maximum % activity (with co-corrector)” value was “+++ (≥350)”. Further, the EC50 under setting [2] fell in the range of 1000 to 10000 nM. Further, under setting [3], the 50% effective concentration (EC50) fell in the range of 1000 to 10000 nM. Further, the Emax (without co-corrector) is 100 to 200%.

With `COc1ccc(C(C)(C)C)cc1CN[C@H]1[C@H](C(C)(C)C)[C@@H](C(=O)O)N(C(=O)[C@H]2OCC[C@H]2C(C)C)[C@H]1c1ccccc1` (relative stereo) [Example 23, (2S,3S,4S,5S)-3-tert-butyl-4-{[(5-tert-butyl-2-methoxyphenyl)methyl]amino}-5-phenyl-1-[(2S*,3S*)-3-(propan-2-yl)oxolane-2-carbonyl]pyrrolidine-2-carboxylic acid], the “Maximum % activity (with co-corrector)” value is “+++ (≥350)”. For the same compound, the EC50 under setting [2] fell in the range of 1000 to 10000 nM. In addition, the EC50 under setting [3] is under 1000 nM. Besides, the Emax (without co-corrector) was over 200%.

For the compound `COc1nc(C(C)(C)C)ccc1CN[C@H]1[C@H](C(C)(C)C)[C@@H](C(=O)O)N(C(=O)C2CCCC(F)(F)C2)[C@H]1c1ccccc1` (relative stereo) [Example 53, (2S,3S,4S,5S)-3-tert-butyl-4-{[(6-tert-butyl-2-methoxypyridin-3-yl)methyl]amino}-1-[(1R*)-3,3-difluorocyclohexane-1-carbonyl]-5-phenylpyrrolidine-2-carboxylic acid], the “Maximum % activity (with co-corrector)” value was “+++ (≥350)”. Also, the EC50 under setting [2] was in the range of 1000 to 10000 nM. For the same compound, the EC50 under setting [3] was under 1000 nM. Further, the Emax (without co-corrector) is over 200%.

Consider `COc1ccc(C(C)(C)C)cc1CN[C@H]1[C@H](C(C)(C)C)[C@@H](C(=O)O)N(C(=O)C2CCCCO2)[C@H]1c1ccccc1C(C)C` (relative stereo) [Example 62, (2S,3S,4S,5S)-3-tert-butyl-4-{[(5-tert-butyl-2-methoxyphenyl)methyl]amino}-1-[(2S*)-oxane-2-carbonyl]-5-[2-(propan-2-yl)phenyl]pyrrolidine-2-carboxylic acid], for which the “Maximum % activity (with co-corrector)” value is “+++ (≥350)”. Further, under setting [2], the EC50 was under 1000 nM. Besides, the EC50 under setting [3] was under 1000 nM. In addition, the Emax (without co-corrector) was over 200%.

`COc1ccc(C(C)(C)C)cc1CN[C@H]1[C@H](C(C)(C)C)[C@@H](C(=O)O)N(C(=O)[C@@H]2C[C@H]3CC[C@@H]2O3)[C@H]1c1ccccc1C(C)C` (relative stereo) [Example 74, (2S,3S,4S,5S)-3-tert-butyl-4-{[(5-tert-butyl-2-methoxyphenyl)methyl]amino}-1-[(1S*,2R*,4R*)-7-oxabicyclo[2.2.1]heptane-2-carbonyl]-5-[2-(propan-2-yl)phenyl]pyrrolidine-2-carboxylic acid]: the “Maximum % activity (with co-corrector)” value is listed as “+++ (≥350)”. Also, under setting [2], the EC50 is 1000 to 10000 nM. Also, the EC50 under setting [3] is under 1000 nM. Further, the Emax (without co-corrector) was over 200%.

As for `COc1ccc(C(F)(F)F)cc1CN[C@@H]1[C@@H](C(C)(C)C)[C@H](C(=O)O)N(C(=O)C(C)Oc2ccccc2)[C@@H]1c1ccccc1` (relative stereo) [Example I-32], the “Maximum % activity (with co-corrector)” value is given as “+++ (≥350)”. For the same compound, under setting [2], the EC50 fell in the range of 1000 to 10000 nM. Moreover, the EC50 under setting [3] lay in the range of 1000 to 10000 nM. Besides, the Emax (without co-corrector) was under 100%.

As to `CO[C@H](C(=O)N1[C@H](c2ccccc2)[C@H](Nc2cc(C(F)(F)F)cc(C)n2)[C@@H](C(C)(C)C)[C@@H]1C(=O)O)c1ccccc1` (relative stereo) [Example I-33], the “Maximum % activity (with co-corrector)” value was “++ (≥150 and <350)”. Moreover, the EC50 under setting [2] is over 10000 nM. Under setting [3], the EC50 was 1000 to 10000 nM. For the setting “without co-corrector”, the Emax is under 100%.

Regarding `COc1ccc(C(C)(C)C)cc1CN[C@H]1[C@H](C(C)(C)C)[C@@H](C(=O)O)N(C(=O)[C@@H]2OCC[C@@H]2C(C)C)[C@H]1c1ccccc1` (relative stereo) [Example I-104, (2S,3S,4S,5S)-3-tert-butyl-4-{[(5-tert-butyl-2-methoxyphenyl)methyl]amino}-5-phenyl-1-[(2R*,3R*)-3-(propan-2-yl)oxolane-2-carbonyl]pyrrolidine-2-carboxylic acid], the “Maximum % activity (with co-corrector)” value is reported as “+++ (≥350)”. The EC50 under setting [2] is 1000 to 10000 nM. The EC50 under setting [3] lay in the range of 1000 to 10000 nM. Also, the Emax (without co-corrector) lay within 100 to 200%.

As to `COc1ccc(C(F)(F)F)cc1CN[C@H]1[C@H](C(C)(C)C)[C@@H](C(=O)O)N(C(=O)[C@@H]2OCC[C@@H]2C(C)C)[C@H]1c1ccccc1` (relative stereo) [Example I-105], the “Maximum % activity (with co-corrector)” value is given as “+++ (≥350)”. Besides, the EC50 under setting [2] lay in the range of 1000 to 10000 nM. Also, the EC50 under setting [3] was 1000 to 10000 nM. Further, the Emax (without co-corrector) is under 100%.

Consider `COc1ccc(C(F)(F)F)cc1CN[C@H]1[C@H](C(C)(C)C)[C@@H](C(=O)O)N(C(=O)[C@H]2OCC[C@H]2C(C)C)[C@H]1c1ccccc1` (relative stereo) [Example I-106], for which the “Maximum % activity (with co-corrector)” value was “+++ (≥350)”. Moreover, the EC50 under setting [2] lay in the range of 1000 to 10000 nM. The EC50 under setting [3] was 1000 to 10000 nM. For the setting “without co-corrector”, the Emax was over 200%.

Turning to `COc1ccc(C(C)(C)C)cc1CN[C@H]1[C@H](C(C)(C)C)[C@@H](C(=O)O)N(C(=O)C2OC[C@@H]3CCC[C@H]23)[C@H]1c1ccccc1` (relative stereo) [Example I-107], the “Maximum % activity (with co-corrector)” value was “+++ (≥350)”. Further, the EC50 under setting [2] fell in the range of 1000 to 10000 nM. Moreover, the EC50 under setting [3] lay within 1000 to 10000 nM. Further, the Emax (without co-corrector) was over 200%.

With `COc1ccc(C(F)(F)F)cc1CN[C@H]1[C@H](C(C)(C)C)[C@@H](C(=O)O)N(C(=O)C2OC[C@@H]3CCC[C@H]23)[C@H]1c1ccccc1` (relative stereo) [Example I-108], the “Maximum % activity (with co-corrector)” value is “+++ (≥350)”. The EC50 under setting [2] lay in the range of 1000 to 10000 nM. Further, the EC50 under setting [3] was in the range of 1000 to 10000 nM. Besides, where the note is “without co-corrector”, the Emax lay within 100 to 200%.

Take `COc1ccc(C(C)(C)C)cc1CN[C@H]1[C@H](C(C)(C)C)[C@@H](C(=O)O)N(C(=O)[C@@H]2C[C@H]2c2cccnc2)[C@H]1c1ccccc1` (relative stereo) [Example I-139]: the “Maximum % activity (with co-corrector)” value is “+++ (≥350)”. Under setting [2], the EC50 was 1000 to 10000 nM. Also, the EC50 under setting [3] fell in the range of 1000 to 10000 nM. Also, the Emax (without co-corrector) is over 200%.
